# Experimental data from patent publication US8900551B2, “Peptide which passes through blood-brain barrier and targets apoptosis of neurodegenerative brain disease site and uses thereof” (Kyungpook National University Industry-Academic Cooperation …, priority 2009, dated 2014).
# Where no end group is shown, it is not given here.
# Key:
# [1] = tested on: apoptotic cells within Alzheimer's disease-affected brain tissues; experiment: In vivo near infrared imaging of Alzheimer's disease model mice with Cy7.5-labeled peptide; design: species or system mouse; details: intravenous
# Excerpt: (§1) As an Alzheimer's disease model, a transgenic mouse model over-expressing Amyloid precursor protein (APP) gene and Presenilin 1 (PS1) gene was used. The model animal has a characteristic that apoptosis together with extracellular accumulation of beta amyloid protein (one of the characteristics of Alzheimer's disease) gradually increases according to an increase of age. On mice, from a 5 month old mouse (early stage of alzheimer's disease) to a 13 month old mouse (severe stage), this experiment was performed according to the progression of disease. The apoptosis was confirmed by TUNEL (in vitro terminal deoxynucleotidyl transferase-mediated dUTP nick-end labeling) assay according to the manufacturer (Roche)'s instructions. In this method, biotin-dUTP is labeled at the end of a cleaved DNA fragment specifically occurring in apoptosis by using terminal deoxynucleotidyl transferase enzyme, and then fluorescence staining is performed by streptavidin-rhodamine (red fluorescent dye).
# The Alzheimer's disease-affected mouse (5, 7, 9, and […]) models were intravenously injected with the inventive peptide (ApoPep-1) labeled with Cy7.5 near infrared fluorescence, under isoflurane anesthesia, to a final concentration of 50 μM. After 2 hours from the injection, a head region was imaged by near infrared imaging, and each brain was isolated and imaged by near infrared imaging. An in vivo near infrared fluorescence image was imaged by an Optix exPlore machine (ART). Also, by using the machine's own software, each image was standardized.
# The peptide used in the present invention was synthesized by a standard Fmoc method, and separated by HPLC machine. The synthesis of the peptide was carried out by special companies (Peptron and Anygen). The peptide was synthesized in such a manner that N-terminal was combined with fluorescein isothiacyanate (FITC). Otherwise, after the synthesis of the peptide, N-terminal was combined with Cy7.5 near infrared fluorescent dye.
# [2] = tested on: apoptotic cells within Parkinson's disease-affected brain tissues; experiment: In vivo near infrared imaging of MPTP-induced Parkinson's disease mice with Cy7.5-labeled peptide; design: species or system mouse; details: for near infrared fluorescence at the brain region: Cy7.5-labeled, intravenous, 2 hours
# Protocol: (§2) Parkinson's disease was induced by specifically destroying a dopaminergic neuron existing in substantia nigra of a brain by a drug. For this, to each of C57BL male mice (koatech) (body weight: 21 to 23 g), MPTP (1-methyl-4-phenyl-1,2,3,6-tetrahydro pyridine hydrochloride) (Sigma) was administered with a single dose of 15 mg/kg. MPTP administration was carried out with an interval of 2 hours, four times through intraperitoneal injection, and each mouse was administered with MPTP in a total amount of 60 mg/kg.
# (§3) On day 7, 14, and 21 from the administration of MPTP (day 0), the inventive peptide labeled with Cy7.5 was injected. The peptide was intravenously injected into a tail vein to a final concentration of 50 μM, under isoflurane anesthesia, and was circulated for 2 hours. Then, an in vivo near infrared fluorescence image was imaged. The mouse on which the experiment had been completed was immediately subjected to anesthesia and euthanasia. Then, a brain tissue sample was collected. From the dead mouse, blood was immediately removed by saline solution flushing through heart, and primarily fixed by re-flushing of 4% paraformaldehyde solution. The primarily fixed brain was collected from the mouse, and then postfixed by being placed for 1 day in 30% sucrose/phosphate buffer solution, and placed for 1 day in 4% paraformaldehyde phosphate buffer solution. The fixed brain tissues were rapidly frozen by dry ice, and formed into a block for frozen fractions. At some desired time, the stored brain block was prepared as frozen fractions, and used for various staining methods.
# [3] = tested on: apoptotic cells within Parkinson's disease-affected brain tissues; experiment: Immunofluorescence / TUNEL staining of Parkinson's disease-affected brain tissues injected with FITC-labeled peptide; type: in vivo, mouse
# Excerpt: as §1, with “The apoptosis was confirmed by TUNEL (in vitro terminal deoxynucleotidyl transferase-mediated dUTP nick-end labeling) assay according to the manufacturer (Roche)'s instructions.” left out
# […] Then, an in vivo near infrared fluorescence image was imaged. […]
# Also, in order to monitor the therapeutic effect of a drug, after 30 minutes from the administration of MPTP, amantadine used as a Parkinson's disease therapeutic agent was intraperitoneally administered into each mouse in a dose of 25 mg/kg a total of seven times with a one day interval. […] Apoptosis was analyzed in the same manner as described in Example <1-1>.
# [4] = tested on: apoptotic cells within Alzheimer's disease-affected brain tissues; experiment: Immunofluorescence staining analysis of Alzheimer's disease-affected brain tissues injected with FITC-labeled peptide; type: in vivo; details: frozen brain sections, Alzheimer's disease-affected mouse 13 months old
# Protocol: For histological examination, the brain tissues isolated from the mouse (13 months old) injected with the inventive peptide labeled with FITC fluorescence (green), which had been subjected to in vivo imaging in Example <1-1>, were postfixed by 4% paraformaldehyde liquid, and immersed in Sucrose/phosphate buffer for 24 hours. Then, they were prepared as frozen sections with a thickness of 30 μm by cryostat. Immunofluorescence staining on an antibody was carried out by using a secondary antibody labeled with alexa 568 (red fluorescent dye). Each tissue slide was observed by a fluorescence microscope (Zeiss).
# [5] = tested on: Parkinson's disease-affected mouse treated with MPTP; experiment: Monitoring the therapeutic effect of amantadine in MPTP-induced Parkinson's disease mice; type: in vivo
# Protocol: as §2, §3
# Also, in order to monitor the therapeutic effect of a drug, after 30 minutes from the administration of MPTP, amantadine used as a Parkinson's disease therapeutic agent was intraperitoneally administered into each mouse in a dose of 25 mg/kg a total of seven times with a one day interval. On day 7 from the administration of amantadine, the inventive peptide labeled with Cy7.5 was injected, and imaging and tissue staining were carried out in the same manner as described above. Apoptosis was analyzed in the same manner as described in Example <1-1>.
# [6] = Parkinson's disease-affected mouse (MPTP), 50 μM final
# [7] = amantadine following MPTP vs MPTP alone, brain tissues
Compound,"near infrared fluorescence at brain region ([1]; mouse (8 months old), Cy7.5-labeled, 2 hours after injection)","near infrared fluorescence at the brain region [2, 6]",co-location of peptide (green) with TUNEL staining (apoptosis biomarker) ([3]; brain tissues of MPTP mice and mice administered with amantadine following MPTP (FIG. 7c)),"co-location of peptide (green) with TUNEL staining (apoptosis biomarker) ([3]; brain tissues of Parkinson's disease-affected mouse treated with MPTP, FITC-labeled peptide)",co-staining of peptide (green) with antibody to Caspase-3 (apoptosis biomarker) [4],distribution of peptide relative to brain blood vessel (α-SMA antibody staining); passing through blood-brain barrier [4],"near infrared fluorescence intensity level at head region according to disease progression ([1]; APP/PS1 Alzheimer's disease-affected mice 5, 7, 9, 13 months old, Cy7.5-labeled, 50 μM final, 2 hours after injection)","near infrared fluorescence at the brain region, Alzheimer's disease-affected mouse versus normal mouse ([1]; Alzheimer's disease-affected mouse (7 and 9 months old) vs normal (wild type) mouse (8 months old), 2 hours)","near infrared fluorescence at a brain region with the lapse of time ([2]; after 1 week, 2 weeks and 3 weeks from administration of MPTP)",near infrared fluorescence at the brain region ([2]; normal (wild type) mouse),"near infrared fluorescence of Cy7.5-labeled inventive peptide at brain region ([5]; amantadine 25 mg/kg intraperitoneal, seven times at one day interval following MPTP, vs mouse administered with MPTP)",number of TUNEL-stained apoptotic cells ([5]; amantadine following MPTP vs MPTP alone),"TUNEL staining (apoptosis biomarker) [5, 7]","antibody staining of tyrosine hydroxylase (TH) (dopaminergic neuron-specific marker) [5, 7]","number of TH-stained dopaminergic neurons ([5]; amantadine following MPTP vs MPTP alone, p<0.01)"
"control peptide: control peptide (amino acid sequence, NSSSVDK) [reference compound]",hardly observed,hardly observed,,,,,,,,,,,,,
"inventive peptide: peptide targeting apoptotic cells, amino acid sequence CQRPPR (SEQ ID NO: 1), named ApoPep-1; N-terminal labeled with FITC or Cy7.5 (also: N-terminal FITC or Cy7.5 label)",,strong near infrared fluorescence was observed,located at the same cell,concurrently located at the same cell,concurrently stained at the same cell,distributed within brain parenchyma outside of a brain blood vessel,near infrared fluorescence intensity level increased,much stronger near infrared fluorescence at the brain region than the normal mouse,became stronger,hardly observed,,,,,
NC12CC3CC(CC(C3)C1)C2 [amantadine],,,,,,,,,,,lower near infrared fluorescence than the mouse administered with MPTP,reduction of apoptosis in neurons,decrease of TUNEL staining,increase of antibody staining of tyrosine hydroxylase,statistically significantly increased
